This passage reports GI50 and TGI results from PubChem BioAssay (NCI).

“And” between values parts separate entries of the source, which are not always exact repeats. Identical values can stand only once.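 Compound exposure: 48 hours, 5 concentrations, 96-well plates. Here, GI50 denotes the concentration required for 50% inhibition of growth. TGI is the concentration that stops growth completely.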

Some test systems named below: NCI-H460 lung; COLO 205 colon; UO-31 renal; SN12C renal; BT-549 breast; MDA-MB-435; OVCAR-4 ovarian; TK-10 renal.
Test in all cases: NCI-60 cell line screen, 48 h

As for `O=C1Nc2ccc(I)cc2/C1=C/c1cc(Br)c(O)c(Br)c1`, the GI50 was > 17.4 µM and 17 µM in the test on NCI-H460 lung; 24.3 µM and 18.3 µM in the test with COLO 205 colon; > 16.4 µM and 18.1 µM with UO-31 renal; > 25 µM and 25.9 µM with SN12C renal; > 17.9 µM and 8.07 µM with BT-549 breast; 15 µM and 13.2 µM in the test with MDA-MB-435. The GI50 in the test on OVCAR-4 ovarian is 24.8 µM and 23.3 µM; in the test on TK-10 renal, > 25 µM and 31.1 µM. Further, the TGI in the test on NCI-H460 lung was > 25 µM and 44.1 µM; in the test with COLO 205 colon it was > 25 µM and 71.4 µM; in the test on UO-31 renal, > 25 µM and 58.9 µM; in the test on SN12C renal it was more than 80.8 µM; in the test with BT-549 breast, > 25 µM and 32.7 µM; in the test on MDA-MB-435, more than 100 µM. The values for the TGI with OVCAR-4 ovarian and in the test on TK-10 renal were more than 100 µM and more than 92.3 µM, respectively.

With `COc1cnc2c(c1)C(=O)c1c-2n(CCCN2CCNCC2)c(=O)c2cc(F)ccc12`, the GI50 in the test with NCI-H460 lung was 0.0252 µM; with COLO 205 colon it was 0.15 µM; in the test on UO-31 renal, 0.133 µM; in the test with SN12C renal, 0.0806 µM; in the test on BT-549 breast, 1.25 µM; in the test with MDA-MB-435 it was 0.578 µM. The GI50 was 0.892 µM in the test on OVCAR-4 ovarian and 0.267 µM with TK-10 renal. The TGI in the test on NCI-H460 lung was found to be 0.275 µM; with COLO 205 colon, 1.44 µM; with UO-31 renal, 1.12 µM; in the test on SN12C renal, 0.89 µM; in the test on BT-549 breast, 4.32 µM; in the test with MDA-MB-435 it was 2.01 µM. The TGI in the test on OVCAR-4 ovarian turned out to be 2.49 µM; with TK-10 renal it was 1.43 µM.

Take `COc1cccc(-c2cc(-c3ccc(Nc4nc(Nc5ccc(Cl)cc5)nc(Nc5ccc(Cl)cc5)n4)cc3)nc(N)c2C#N)c1`: the GI50 was 3.74 µM in the test with NCI-H460 lung; 1.63 µM in the test with COLO 205 colon; 1.52 µM with UO-31 renal; 4.01 µM in the test on SN12C renal; 2.44 µM in the test on BT-549 breast; 1.82 µM in the test on MDA-MB-435. For the same compound, the GI50 in the test on OVCAR-4 ovarian is 4.09 µM; with TK-10 renal, 2.21 µM. Further, the TGI in the test on NCI-H460 lung was 24.4 µM; in the test with COLO 205 colon, 3.39 µM; in the test on UO-31 renal, 4.31 µM; in the test on SN12C renal, more than 100 µM; with BT-549 breast, 10.9 µM; with MDA-MB-435, 4.24 µM. Moreover, the TGI in the test with OVCAR-4 ovarian was more than 100 µM; with TK-10 renal, 4.05 µM.

`N#CCC1CCN(c2nc(Nc3ccc(N4CCC(O)CC4)cc3)c3c(=O)[nH]ncc3n2)CC1`: the GI50 in the test on NCI-H460 lung is 0.692 µM; in the test on COLO 205 colon, 0.374 µM; in the test on UO-31 renal it was 0.259 µM; with SN12C renal it was 0.391 µM; with BT-549 breast, 1.28 µM; with MDA-MB-435, 0.628 µM. Also, the figures for the GI50 with OVCAR-4 ovarian and in the test with TK-10 renal were more than 58.1 µM and 0.306 µM, respectively. The TGI in the test with NCI-H460 lung was more than 100 µM; in the test with UO-31 renal it was 4.67 µM; in the test with SN12C renal it was more than 100 µM; in the test with BT-549 breast it was more than 100 µM; in the test with MDA-MB-435, more than 100 µM; with OVCAR-4 ovarian, more than 100 µM. The TGI in the test with TK-10 renal is more than 100 µM.

In the case of `CCCN1CCCC(c2ccc(Nc3nc(Nc4cc(F)ccc4C(N)=O)c4cc[nH]c4n3)c(OC)c2)C1` (centres undefined), the GI50 in the test on NCI-H460 lung was 0.116 µM; in the test with COLO 205 colon, 0.015 µM; in the test on UO-31 renal, 1.27 µM; in the test with SN12C renal, 3.19 µM; with BT-549 breast, 3.74 µM; with MDA-MB-435, 1.04 µM. For the same compound, the GI50 was 3.03 µM with OVCAR-4 ovarian and 0.622 µM with TK-10 renal. Besides, the TGI amounted to 2.99 µM in the test on NCI-H460 lung; 1.23 µM in the test on COLO 205 colon; 5.88 µM in the test with UO-31 renal; 6.71 µM in the test on SN12C renal; 7.4 µM with BT-549 breast; 5.39 µM in the test with MDA-MB-435. In addition, the figures for the TGI with OVCAR-4 ovarian and with TK-10 renal were 6.13 µM and 4.39 µM, respectively.

For the compound `O=C(/C=C/c1ccccc1)c1ccccn1`, the TGI is 32.7 µM and 49.1 µM in the test on NCI-H460 lung; 32.9 µM and 45.7 µM with COLO 205 colon; 31 µM and 46.5 µM with UO-31 renal; 27.3 µM and 31.8 µM with SN12C renal; 37.4 µM and 52.4 µM with BT-549 breast; 44.7 µM and 88.7 µM with MDA-MB-435. Also, the TGI is 54.8 µM and 47.2 µM with OVCAR-4 ovarian; 31 µM and 36.9 µM in the test with TK-10 renal.

With `CNC(=S)N/N=C/CSC/C=N/NC(=S)NC`, the GI50 in the test with NCI-H460 lung, in the test on COLO 205 colon, in the test with UO-31 renal, in the test on SN12C renal, in the test with BT-549 breast and in the test on MDA-MB-435 was more than 100 µM in each case. For the same compound, the GI50 with TK-10 renal is more than 100 µM. Also, the TGI in the test on NCI-H460 lung, with COLO 205 colon, in the test on UO-31 renal, in the test with SN12C renal, in the test with BT-549 breast and with MDA-MB-435 was more than 100 µM each time. Besides, the TGI with OVCAR-4 ovarian and with TK-10 renal was more than 100 µM in each case.

With `CC(=O)Nc1ccc(S(=O)(=O)N2C(=O)CCC2C(=O)Nc2ccccc2)cc1` (centres undefined), the GI50 in the test on NCI-H460 lung is 0.359 µM; in the test with COLO 205 colon, 0.872 µM; with UO-31 renal, 0.55 µM; in the test with SN12C renal, 2.68 µM; with BT-549 breast it was 1.57 µM; in the test on MDA-MB-435, 0.582 µM. Further, the GI50 in the test on OVCAR-4 ovarian is 0.698 µM; with TK-10 renal, 1.91 µM. Besides, the TGI in the test with NCI-H460 lung was determined as 15.3 µM; in the test with COLO 205 colon, 4.38 µM; with UO-31 renal, 16.5 µM; in the test with SN12C renal, 22.6 µM; in the test on BT-549 breast it was 14.6 µM; in the test on MDA-MB-435, 17.3 µM. Also, the TGI in the test with OVCAR-4 ovarian was 10.8 µM; with TK-10 renal it was 13.5 µM.

`Nc1nc(-c2ccccn2)c(-c2ccc3ncccc3n2)s1`: the GI50 in the test with NCI-H460 lung, in the test on COLO 205 colon, in the test with UO-31 renal, with SN12C renal, in the test on BT-549 breast and in the test with MDA-MB-435 was more than 25 µM in each case. The GI50 with OVCAR-4 ovarian and in the test on TK-10 renal was more than 25 µM each time. For the same compound, the TGI with NCI-H460 lung, with COLO 205 colon, in the test on UO-31 renal, in the test with SN12C renal, with BT-549 breast and with MDA-MB-435 was more than 25 µM throughout. Moreover, the TGI in the test on OVCAR-4 ovarian and in the test with TK-10 renal was more than 25 µM throughout.
